30 compounds from patent publication US12516046B2, “2-oxo-oxazolidine-5-carboxamides as NAV1.8 inhibitors” (Merck Sharp & Dohme LLC, priority 2020, dated 2026) can be followed below.

For the assay, the target named is human Nav1.8 (Homo sapiens (Human), UniProt Q9Y5Y9). The experiment in a line: Nav1.8 Qube® Assay (automated 384-well patch-clamp). The assay is classed as cell-based. The settings on record: human Nav1.8 channels stably expressed in HEK 293 cells. An excerpt: Qube® Assay Experimental Procedure
Chain of human Nav1.8 (Q9Y5Y9 whole entry): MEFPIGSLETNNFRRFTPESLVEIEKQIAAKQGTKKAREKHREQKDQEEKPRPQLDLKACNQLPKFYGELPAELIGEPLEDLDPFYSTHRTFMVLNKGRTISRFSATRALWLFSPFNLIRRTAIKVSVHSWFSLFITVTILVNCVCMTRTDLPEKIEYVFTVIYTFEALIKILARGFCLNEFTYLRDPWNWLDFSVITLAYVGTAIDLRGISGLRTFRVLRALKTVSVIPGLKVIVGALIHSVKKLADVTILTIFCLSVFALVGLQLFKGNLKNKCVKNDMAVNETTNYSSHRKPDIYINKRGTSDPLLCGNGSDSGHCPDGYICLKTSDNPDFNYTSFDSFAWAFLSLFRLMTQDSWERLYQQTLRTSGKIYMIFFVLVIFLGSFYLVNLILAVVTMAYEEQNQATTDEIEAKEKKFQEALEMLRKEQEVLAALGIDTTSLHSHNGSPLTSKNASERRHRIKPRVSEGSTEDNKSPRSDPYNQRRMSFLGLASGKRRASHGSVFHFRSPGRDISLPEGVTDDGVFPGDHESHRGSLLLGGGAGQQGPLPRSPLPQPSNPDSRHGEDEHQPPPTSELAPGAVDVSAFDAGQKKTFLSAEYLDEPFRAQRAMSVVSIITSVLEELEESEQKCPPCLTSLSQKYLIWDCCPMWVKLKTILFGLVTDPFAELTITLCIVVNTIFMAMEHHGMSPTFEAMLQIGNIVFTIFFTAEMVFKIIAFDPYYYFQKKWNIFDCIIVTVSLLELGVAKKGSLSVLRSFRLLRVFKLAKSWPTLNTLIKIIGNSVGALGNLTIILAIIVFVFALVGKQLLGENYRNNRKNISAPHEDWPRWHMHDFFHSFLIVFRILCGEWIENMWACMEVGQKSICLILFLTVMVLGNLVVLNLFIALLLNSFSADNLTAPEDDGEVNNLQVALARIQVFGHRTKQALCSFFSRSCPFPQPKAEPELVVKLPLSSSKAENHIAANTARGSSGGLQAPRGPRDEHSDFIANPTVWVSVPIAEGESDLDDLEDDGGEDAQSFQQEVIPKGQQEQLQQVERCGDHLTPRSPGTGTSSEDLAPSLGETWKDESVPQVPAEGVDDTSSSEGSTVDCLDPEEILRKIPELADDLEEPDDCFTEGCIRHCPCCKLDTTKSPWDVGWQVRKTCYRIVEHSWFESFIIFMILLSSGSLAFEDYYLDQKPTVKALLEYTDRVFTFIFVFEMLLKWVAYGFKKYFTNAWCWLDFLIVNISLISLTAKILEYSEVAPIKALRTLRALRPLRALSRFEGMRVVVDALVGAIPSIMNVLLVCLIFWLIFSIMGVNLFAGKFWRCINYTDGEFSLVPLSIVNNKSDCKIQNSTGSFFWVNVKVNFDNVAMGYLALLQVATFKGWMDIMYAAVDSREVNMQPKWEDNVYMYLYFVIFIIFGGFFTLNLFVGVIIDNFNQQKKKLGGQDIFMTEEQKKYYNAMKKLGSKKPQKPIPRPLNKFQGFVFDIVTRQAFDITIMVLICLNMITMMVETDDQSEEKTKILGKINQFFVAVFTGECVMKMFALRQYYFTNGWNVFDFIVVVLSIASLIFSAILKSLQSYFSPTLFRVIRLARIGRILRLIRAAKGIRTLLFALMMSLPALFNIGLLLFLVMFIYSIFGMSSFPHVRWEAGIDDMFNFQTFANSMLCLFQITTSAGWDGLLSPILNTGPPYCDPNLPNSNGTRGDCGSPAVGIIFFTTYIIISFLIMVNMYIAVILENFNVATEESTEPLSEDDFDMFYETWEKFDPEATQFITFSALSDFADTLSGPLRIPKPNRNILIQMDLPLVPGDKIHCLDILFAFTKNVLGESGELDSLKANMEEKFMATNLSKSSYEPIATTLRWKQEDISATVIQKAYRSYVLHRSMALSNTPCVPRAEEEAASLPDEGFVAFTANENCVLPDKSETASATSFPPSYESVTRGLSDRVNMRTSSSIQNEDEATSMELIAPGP
(The patch-clamp technique gives a direct electrical read-out from membranes.)
One may read the IC50 as the concentration that gives 50% inhibition. Low readings indicate higher potency, high ones lower potency. The compound `O=C1NC[C@@H](C(=O)NC(c2ccc(Cl)cc2)c2c[nH]c(C(F)(F)F)n2)O1` (single isomer, unassigned) [Example 17A, (S)-N-((R or S)-(4-chlorophenyl)(2-(trifluoromethyl)-1H-imidazol-4-yl)methyl)-2-oxooxazolidine-5-carboxamide] returned an IC50 of 593 nM.
Take `O=C1NC[C@@H](C(=O)NC(c2ccc(Cl)cc2)c2c[nH]c(C(F)(F)F)n2)O1` (single isomer, unassigned) [Example 17B, (S)-N-((R or S)-(4-chlorophenyl)(2-(trifluoromethyl)-1H-imidazol-4-yl)methyl)-2-oxooxazolidine-5-carboxamide]: the half-inhibitory concentration (IC50) came to 10600 nM.
The result for `O=C1NC[C@@H](C(=O)NC(c2ccc(Cl)cc2)c2coc(C(F)(F)F)n2)O1` (single isomer, unassigned) [Example 18A, (S)-N-((R or S)-(4-chlorophenyl)(2-(trifluoromethyl)oxazol-4-yl)methyl)-2-oxooxazolidine-5-carboxamide] reads 31 nM; that for `O=C1NC[C@@H](C(=O)NC(c2ccc(Cl)cc2)c2coc(C(F)(F)F)n2)O1` (single isomer, unassigned) [Example 18B, (S)-N-((R or S)-(4-chlorophenyl)(2-(trifluoromethyl)oxazol-4-yl)methyl)-2-oxooxazolidine-5-carboxamide], 272 nM; that for `O=C1NC[C@@H](C(=O)NC(c2ccc(Cl)cc2)c2ccc(F)c(Cl)c2)O1` (single isomer, unassigned) [Example 19A, (S)—N—((R or S)-(3-chloro-4-fluorophenyl)(4-chlorophenyl)methyl)-2-oxooxazolidine-5-carboxamide], 0.9 nM.
As for `O=C1NC[C@@H](C(=O)NC(c2ccc(Cl)cc2)c2ccc(F)c(Cl)c2)O1` (single isomer, unassigned) [Example 19B, (S)—N—((R or S)-(3-chloro-4-fluorophenyl)(4-chlorophenyl)methyl)-2-oxooxazolidine-5-carboxamide], the half-inhibitory concentration (IC50) was 2.4 nM. Against the preceding compound, the IC50 is about 2.7-fold higher.
The result for `COc1ccc(C(NC(=O)[C@@H]2CNC(=O)O2)c2ccc(Cl)cc2)cn1` (single isomer, unassigned) [Example 22A, (S)-N-((R or S)-(4-chlorophenyl)(6-methoxypyridin-3-yl)methyl)-2-oxooxazolidine-5-carboxamide] reads 130 nM; that for `COc1ccc(C(NC(=O)[C@@H]2CNC(=O)O2)c2ccc(Cl)cc2)cn1` (single isomer, unassigned) [Example 22B, (S)-N-((R or S)-(4-chlorophenyl)(6-methoxypyridin-3-yl)methyl)-2-oxooxazolidine-5-carboxamide], 314 nM.
The result for `O=C1NC[C@@H](C(=O)NC(c2ccc(Cl)cc2)c2ccc(F)cn2)O1` (single isomer, unassigned) [Example 23A, (S)-N-((R or S)-(4-chlorophenyl)(5-fluoropyridin-2-yl)methyl)-2-oxooxazolidine-5-carboxamide] reads 1350 nM; that for `O=C1NC[C@@H](C(=O)NC(c2ccc(Cl)cc2)c2ccc(F)cn2)O1` (single isomer, unassigned) [Example 23B, (S)-N-((R or S)-(4-chlorophenyl)(5-fluoropyridin-2-yl)methyl)-2-oxooxazolidine-5-carboxamide], 233 nM.
In turn, `O=C1NC[C@@H](C(=O)NC(c2ccccc2)c2ccc(Cl)c(Cl)c2)O1` (single isomer, unassigned) [Example 25A, (S)-N-((R or S)-(3,4-dichlorophenyl) (phenyl)methyl)-2-oxooxazolidine-5-carboxamide] gave an IC50 of 2.7 nM.
With `O=C1NC[C@@H](C(=O)NC(c2ccccc2)c2ccc(Cl)c(Cl)c2)O1` (single isomer, unassigned) [Example 25B, (S)-N-((R or S)-(3,4-dichlorophenyl) (phenyl)methyl)-2-oxooxazolidine-5-carboxamide], the midpoint of inhibition, the IC50, lay at 14 nM. Compared with the last compound, the IC50 is about 5.2-fold higher.
For `O=C1NC[C@@H](C(=O)NC(c2cccc(Cl)c2)C2CC2c2ccccc2)O1` (single isomer, unassigned) [Example 26A, (5S)-N-((R or S)-(3-chlorophenyl) ((cis or trans)-2-phenylcyclopropyl)methyl)-2-oxooxazolidine-5-carboxamide] the value was 326 nM; for `O=C1NC[C@@H](C(=O)NC(c2cccc(Cl)c2)C2CC2c2ccccc2)O1` (single isomer, unassigned) [Example 26B, (5S)-N-((R or S)-(3-chlorophenyl) ((cis or trans)-2-phenylcyclopropyl)methyl)-2-oxooxazolidine-5-carboxamide], 70 nM; for `COc1ccc(Cl)cc1C(NC(=O)[C@@H]1CNC(=O)O1)c1cccc(Cl)c1` (single isomer, unassigned) [Example 28A, (S)-N-((R or S)-(5-chloro-2-methoxyphenyl)(3-chlorophenyl)methyl)-2-oxooxazolidine-5-carboxamide], 21 nM.
`COc1ccc(Cl)cc1C(NC(=O)[C@@H]1CNC(=O)O1)c1cccc(Cl)c1` (single isomer, unassigned) [Example 28B, (S)-N-((R or S)-(5-chloro-2-methoxyphenyl)(3-chlorophenyl)methyl)-2-oxooxazolidine-5-carboxamide] came in with an IC50 of 8.4 nM.
For the compound `O=C1NC[C@@H](C(=O)NC(c2ccc(Cl)cc2)c2cccc(F)c2F)O1` (single isomer, unassigned) [Example 29A, (S)-N-((R or S)-(4-chlorophenyl)(2,3-difluorophenyl)methyl)-2-oxooxazolidine-5-carboxamide], the IC50 came to 14 nM.
As for `O=C1NC[C@@H](C(=O)NC(c2ccc(Cl)cc2)c2cccc(F)c2F)O1` (single isomer, unassigned) [Example 29B, (S)-N-((R or S)-(4-chlorophenyl)(2,3-difluorophenyl)methyl)-2-oxooxazolidine-5-carboxamide], inhibition was half-maximal at 74 nM (IC50). Compared with the last compound, the IC50 is about 5.3-fold higher.
The compound `CC(C)c1cccc(C(NC(=O)[C@@H]2CNC(=O)O2)c2ccc(Cl)cc2)c1` (single isomer, unassigned) [Example 32A, (S)-N-((R or S)-(4-chlorophenyl)(3-isopropylphenyl)methyl)-2-oxooxazolidine-5-carboxamide] displayed an IC50 of 5 nM.
`CC(C)c1cccc(C(NC(=O)[C@@H]2CNC(=O)O2)c2ccc(Cl)cc2)c1` (single isomer, unassigned) [Example 32B, (S)-N-((R or S)-(4-chlorophenyl)(3-isopropylphenyl)methyl)-2-oxooxazolidine-5-carboxamide] returned an IC50 of 12 nM.
The result for `O=C1NC[C@@H](C(=O)NC(c2ccc(Cl)cc2)c2cccc(C3CC3)c2)O1` (single isomer, unassigned) [Example 33A, (S)-N-((R or S)-(4-chlorophenyl)(3-cyclopropylphenyl)methyl)-2-oxooxazolidine-5-carboxamide] reads 4.8 nM; that for `O=C1NC[C@@H](C(=O)NC(c2ccc(Cl)cc2)c2cccc(C3CC3)c2)O1` (single isomer, unassigned) [Example 33B, (S)-N-((R or S)-(4-chlorophenyl)(3-cyclopropylphenyl)methyl)-2-oxooxazolidine-5-carboxamide], 9.4 nM.
For `O=C1NC[C@@H](C(=O)NC(c2ccc(Cl)cc2)c2ccc(Cl)c(C(F)(F)F)c2)O1` (single isomer, unassigned) [Example 35A, (S)-N-((R or S)-(4-chloro-3-(trifluoromethyl)phenyl)(4-chlorophenyl)methyl)-2-oxooxazolidine-5-carboxamide] the value was 0.4 nM; for `O=C1NC[C@@H](C(=O)NC(c2ccc(Cl)cc2)c2ccc(Cl)c(C(F)(F)F)c2)O1` (single isomer, unassigned) [Example 35B, (S)-N-((R or S)-(4-chloro-3-(trifluoromethyl)phenyl)(4-chlorophenyl)methyl)-2-oxooxazolidine-5-carboxamide], 3.8 nM.
For `O=C1NC[C@@H](C(=O)NC(c2ccc(Cl)cc2)c2ccc(C(F)(F)F)cn2)O1` (single isomer, unassigned) [Example 37A, (S)-N-((R or S)-(4-chlorophenyl)(5-(trifluoromethyl)pyridin-2-yl)methyl)-2-oxooxazolidine-5-carboxamide] the value was 113 nM.
Compound `O=C1NC[C@@H](C(=O)NC(c2ccc(Cl)cc2)c2ccc(C(F)(F)F)cn2)O1` (single isomer, unassigned) [Example 37B, (S)-N-((R or S)-(4-chlorophenyl)(5-(trifluoromethyl)pyridin-2-yl)methyl)-2-oxooxazolidine-5-carboxamide] came in with an IC50 of 26 nM.
The result for `CC(C)(C)c1csc(C(NC(=O)[C@@H]2CNC(=O)O2)c2ccc(Cl)cc2)n1` (single isomer, unassigned) [Example 39A, (S)-N-((R or S)-(4-(tert-butyl)thiazol-2-yl)(4-chlorophenyl)methyl)-2-oxooxazolidine-5-carboxamide] reads 5.1 nM.
The result for `CC(C)(C)c1csc(C(NC(=O)[C@@H]2CNC(=O)O2)c2ccc(Cl)cc2)n1` (single isomer, unassigned) [Example 39B, (S)-N-((R or S)-(4-(tert-butyl)thiazol-2-yl)(4-chlorophenyl)methyl)-2-oxooxazolidine-5-carboxamide] reads 64 nM.
The result for `O=C1NC[C@@H](C(=O)NC(c2ccc(Cl)cc2)C2CCN(CC(F)(F)F)CC2)O1` (single isomer, unassigned) [Example 42A, (S)-N-((R or S)-(4-chlorophenyl)(1-(2,2,2-trifluoroethyl)piperidin-4-yl)methyl)-2-oxooxazolidine-5-carboxamide] reads 936 nM; that for `O=C1NC[C@@H](C(=O)NC(c2ccc(Cl)cc2)C2CCN(CC(F)(F)F)CC2)O1` (single isomer, unassigned) [Example 42B, (S)-N-((R or S)-(4-chlorophenyl)(1-(2,2,2-trifluoroethyl)piperidin-4-yl)methyl)-2-oxooxazolidine-5-carboxamide], 272 nM.
